Results from US20170304177A1, “USE OF ISOSORBIDE ESTER AND N-ACYLATED AMINO ACID DERIVATIVES AS ANTI-AGEING AGENT FOR THE HUMAN SKIN” (SOCIETE D'EXPLOITATION DE PRODUITS POUR LES INDUSTRIES …, priority 2014, published 2017).

Tested on: Normal human fibroblasts
Assay: In vitro migration of normal human fibroblasts (Oris migration plates, mitomycin C pretreatment, 40 h incubation, Calcein AM labelling)
Type: cell-based
Details: for (Dmigr) mean migration distance of the cells: 40 h, mean ± SD of quadruplicates; for [(Dmigr) − (Dmigr)control]/(Dmigr)control, percentage of migratory effect relative to the control: vs FCS culture control
Text: The fibroblast migration test is a test commonly used in the cosmetics and pharmaceutical sector and is especially described in the international patent application published under the number WO 2010/056908 A1. It allows in vitro reproduction of the phenomenon of fibroblast migration; a decrease in the migratory capacities of the fibroblasts being reported as associated with aging of the skin (1) (4).
Normal human fibroblasts at the R5 passage were amplified in a T75 culture flask and then inoculated at 25 000 cells/well in specific culture plates. These plates are dedicated to migration (Oris™ from Platypus), integrating a central zone without initial deposition of cells (stoppers). After 96 hours of plate amplification and 2 hours before the treatment, all the wells were treated with mitomycin C (2 hours at 10 μg/ml), so as to stop the cell proliferation, and thus to observe only the migration phenomenon. The stoppers were removed, and the references, the products or standard medium for fibroblasts containing 2% fetal calf serum (FCS) were applied to the cells under 100 μl, and then incubated for 40 hours at 37° C. under 5% CO2. Each condition was performed in quadruplicate.
On conclusion of the incubation, the cells were labeled with Calcein AM (5 μM, 20 minutes at 37° C.), so as to visualize the viable cells by fluorescence (revelation of the cytoplasm). Photos were taken, after having inserted a black screen under the culture plates, so as to visualize only the zone where the cells were not deposited. Thus, only the cells which had migrated were photographed (×4 objective lens; with a ×0.7 reducer on the camera adapter). The mean migration distance of the cells (Dmigr) was measured with NIS-Elements-BR 3.0 (4 cells). The means and standard deviations of the distances were calculated on the quadruplicates. The percentages of migratory effect relative to the control, and also the statistics (Student test) were also calculated.

Epidermal Growth Factor (EGF)
(Dmigr) mean migration distance of the cells (EGF 10 ng/ml): 203 ± 20 μm | [(Dmigr) − (Dmigr)control]/(Dmigr)control, percentage of migratory effect relative to the control (EGF 10 ng/ml): +21% | (Dmigr) mean migration distance of the cells (EGF 50 ng/ml): 212 ± 8 μm | [(Dmigr) − (Dmigr)control]/(Dmigr)control, percentage of migratory effect relative to the control (EGF 50 ng/ml): +26% | Effect on migration distance of normal human fibroblasts (in words) (summary statement on Table 1, EGF at 10 and 50 ng/ml, compositions at 5 and 10 μg/ml): increase in the migration distance
